Legend:
CDK9/CyclinT = CDK9/CyclinT (Homo sapiens (Human), UniProt P50750); assay: CDK9 biochemical assay (Kinase-Glo Max luminescence); settings: 30° C. for 45 minutes
Method: To each well of a 96-well plate was added 5× kinase assay buffer with 10 mM DTT (6 μL), 500 μM ATP (1 μL), 5×CDK substrate (10 μL), and water (8 μL). 5 μL of compound were added to the test and positive control groups, while 5 μL of solvent was added to the blank groups. 100 ng of CDK9/CyclinT in 20 μL water was added to the test and positive control groups, while 20 μL of 1× kinase assay buffer was added to the blank groups. The reaction mixtures were incubated at 30° C. for 45 minutes, and 50 μL of Kinase-Glo® Max was added to each well and the plates were shielded from light and incubated for 15 minutes at room temperature. Luminescence was measured on a microplate reader and IC50 values were calculated using Prism 9 software.

HepG2 cells = assay: Cancer cell viability assay (CellTiter-Glo 2.0), HepG2; assay type: cell-based, Human; settings: HepG2, 72 hours compound treatment
Method: (§1) Human liver cancer cell lines HepG2, Hep3B, Huh7, and SK-HEP-1 cells were rinsed and trypsinized with 0.25% trypsin (Corning #25-053-CI) in an incubator at 37° C. until detached. The cells were resuspended and seeded in 96-well plates to a density of 5,000 cells per well. Following cell adhesion, compounds were added to a final concentration of 2× dilution. 72 hours following compound treatment, CellTiter-Glo® 2.0 was added to the well in a 2:1 ratio of media/CellTiter-Glo® 2.0. The plates were shielded from light, shaken for 2 minutes, and incubated for 10 minutes. Luminescence was measured on a microplate reader and EC50 values were calculated using Prism 9 software.

Hep3B cells = assay: Cancer cell viability assay (CellTiter-Glo 2.0), Hep3B; assay type: cell-based, Human; settings: 72 hours compound treatment
Method: as §1

[1] = Pharmacokinetic and tissue distribution study, liver versus blood in mice; assay type: in vivo; settings: CD-1 mice, single oral dose 5 mg/kg suspension, 2 hours; compared with NVP-2 (FIG. 1)
Method: For mice experiments, the liver and blood pharmacokinetics of compounds were analyzed in CD-1 mice following a single oral administration dose of 5 mg/kg compound suspension.
Liver and blood samples for determination of compound concentration were obtained at 2 hours following administration of compounds (n=3 for each compound). The ratios of compound concentrations in liver versus blood in CD-1 mice following a single oral administration dose of 5 mg/kg compound suspension are summarized in FIG. 1.

Huh7 cells = assay: Cancer cell viability assay (CellTiter-Glo 2.0), Huh7; assay type: cell-based, Human; settings: Huh7, 72 hours compound treatment
Method: as §1

SK-HEP-1 cells = assay: Cancer cell viability assay (CellTiter-Glo 2.0), SK-HEP-1; assay type: cell-based, Human; settings: SK-HEP-1, 72 hours compound treatment
Method: as §1

[2] = Pharmacokinetic study, jugular vein versus portal vein blood in rats; assay type: in vivo, Sprague-Dawley (SD) rats; settings: SD rats, single oral dose 5 mg/kg suspension; compared with NVP-2 (FIG. 2)
Method: For rat experiments, the pharmacokinetics of compounds in blood collected from jugular vein and portal vein were analyzed in Sprague-Dawley (SD) rats following a single oral administration dose of 5 mg/kg compound suspension. Blood samples for determination of compound concentration were obtained from jugular vein and portal vein at 0.25 h, 0.5 h, 1 h, 2 h, 4 h, 6 h, 8 h, and 24 h following administration of compounds (n=3 for each compound). Collected liver and blood samples were analyzed using an LC-MS/MS method to quantify compound concentrations. The ratios of compound concentrations in blood collected from jugular vein versus portal vein in Sprague-Dawley (SD) rats following a single oral administration dose of 5 mg/kg compound suspension are summarized in FIG. 2.

[3] = Tolerability and safety assessment study (body weight change); assay type: in vivo; settings: BALB/c nude mice; compared with NVP-2 (FIG. 3)
Method: Based on the body weight, BALB/c nude mice were randomly assigned to respective groups using a computer-generated randomization procedure. Body weights of all animals were measured daily to record weight changes (relative to day 1) of BALB/c nude mice treated with vehicle and compounds. For routine monitoring, all study animals were monitored for behavior such as mobility, food and water consumption, body weight, eye/hair matting and any other abnormal effect. Any mortality and/or abnormal clinical signs were recorded. The animals were euthanized when they lost significant body mass (emaciated, obvious body weight loss >20%).

CDK9/CyclinT, sequence (P50750 whole entry): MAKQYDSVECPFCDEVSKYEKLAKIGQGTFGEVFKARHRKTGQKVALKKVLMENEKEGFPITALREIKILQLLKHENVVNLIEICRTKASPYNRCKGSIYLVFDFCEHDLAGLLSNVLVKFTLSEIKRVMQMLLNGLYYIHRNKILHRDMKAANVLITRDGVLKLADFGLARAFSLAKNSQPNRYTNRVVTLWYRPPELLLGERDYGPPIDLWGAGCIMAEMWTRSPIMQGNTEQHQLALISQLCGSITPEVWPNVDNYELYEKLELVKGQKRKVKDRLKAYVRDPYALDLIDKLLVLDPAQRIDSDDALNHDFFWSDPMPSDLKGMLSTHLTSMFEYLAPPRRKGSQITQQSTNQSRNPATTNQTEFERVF
CDK9/CyclinT, sequence (O60563 whole entry partner): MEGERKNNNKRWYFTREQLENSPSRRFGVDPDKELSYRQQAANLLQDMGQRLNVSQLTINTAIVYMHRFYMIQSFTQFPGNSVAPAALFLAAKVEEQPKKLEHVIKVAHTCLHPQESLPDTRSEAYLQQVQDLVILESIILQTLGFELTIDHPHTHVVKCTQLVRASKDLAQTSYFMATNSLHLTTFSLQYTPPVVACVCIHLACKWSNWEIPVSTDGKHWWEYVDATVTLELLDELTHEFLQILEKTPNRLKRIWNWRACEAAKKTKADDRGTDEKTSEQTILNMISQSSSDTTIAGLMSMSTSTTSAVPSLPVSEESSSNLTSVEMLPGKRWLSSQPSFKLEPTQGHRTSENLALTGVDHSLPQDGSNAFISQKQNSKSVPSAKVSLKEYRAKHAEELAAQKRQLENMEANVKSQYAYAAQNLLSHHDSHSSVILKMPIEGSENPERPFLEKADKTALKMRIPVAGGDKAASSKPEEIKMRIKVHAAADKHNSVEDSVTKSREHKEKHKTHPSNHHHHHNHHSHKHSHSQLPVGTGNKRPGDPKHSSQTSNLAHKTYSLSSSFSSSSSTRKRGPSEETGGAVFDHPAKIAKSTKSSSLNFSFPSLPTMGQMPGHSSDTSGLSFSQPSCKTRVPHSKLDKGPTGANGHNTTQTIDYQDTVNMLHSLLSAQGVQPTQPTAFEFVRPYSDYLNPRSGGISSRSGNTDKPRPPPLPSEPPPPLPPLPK

C[C@H](COCCNS(=O)(=O)C(F)(F)F)NC1CCC(Nc2cc(-c3cccc(NCC4(C#N)CCOCC4)n3)c(Cl)cn2)CC1 (mixture of isomers) [Compound 40, N-(2-(2-(((1r,4r)-4-((5′-chloro-6-(((4-cyanotetrahydro-2H-pyran-4-yl)methyl)amino)-[2,4′-bipyridin]-2′-yl)amino)cyclohexyl)amino)propoxy)ethyl)-1,1,1-trifluoromethanesulfonamide]
IC50 (CDK9/CyclinT): 0.0025 to 0.005 µM | EC50 (HepG2 cells): < 0.1 µM | EC50 (Hep3B cells): 0.1 to 0.5 µM | ratio of compound concentrations in liver versus blood [1]: higher liver/blood ratios than NVP-2

C[C@H](COCc1nn[nH]n1)N[C@H]1CC[C@H](Nc2cc(-c3cccc(NCC4(C#N)CCOCC4)n3)c(Cl)cn2)CC1 [Compound 2, 4-(((2′-(((1R,4R)-4-(((R)-1-((2H-tetrazol-5-yl)methoxy)propan-2-yl)amino)cyclohexyl)amino)-5′-chloro-[2,4′-bipyridin]-6-yl)amino)methyl)tetrahydro-2H-pyran-4-carbonitrile]
IC50 (CDK9/CyclinT): > 0.01 µM | EC50 (HepG2 cells): > 1 µM | EC50 (Hep3B cells): > 1 µM | EC50 (Huh7 cells): 0.5 to 1 µM | EC50 (SK-HEP-1 cells): > 1 µM

C[C@@H](COCc1nn[nH]n1)NC1CCC(Nc2cc(-c3cccc(NCC4(C#N)CCOCC4)n3)c(Cl)cn2)CC1 (stereo partly drawn) [Compound 3, 4-(((2′-(((1S,4R)-4-(((S)-1-((2H-tetrazol-5-yl)methoxy)propan-2-yl)amino)cyclohexyl)amino)-5′-chloro-[2,4′-bipyridin]-6-yl)amino)methyl)tetrahydro-2H-pyran-4-carbonitrile]
IC50 (CDK9/CyclinT): > 0.01 µM | EC50 (HepG2 cells): > 1 µM | EC50 (Huh7 cells): > 1 µM | EC50 (SK-HEP-1 cells): > 1 µM

CCOC(=O)COC[C@@H](C)NC1CCC(Nc2cc(-c3cccc(NCC4(C#N)CCOCC4)n3)c(Cl)cn2)CC1 (some centres unmarked) [Compound 5]
IC50 (CDK9/CyclinT): < 0.0025 µM | EC50 (HepG2 cells): 0.5 to 1 µM | EC50 (Huh7 cells): < 0.1 µM | EC50 (SK-HEP-1 cells): < 0.1 µM

CCOC(=O)COC[C@H](C)NC1CCC(Nc2cc(-c3cccc(NCC4(C#N)CCOCC4)n3)c(Cl)cn2)CC1 (some centres unmarked) [Compound 6]
IC50 (CDK9/CyclinT): < 0.0025 µM | EC50 (HepG2 cells): 0.5 to 1 µM | EC50 (Hep3B cells): 0.1 to 0.5 µM | EC50 (Huh7 cells): < 0.1 µM | EC50 (SK-HEP-1 cells): < 0.1 µM | ratio of compound concentrations in blood from jugular vein versus portal vein (liver efflux/influx ratio) [2]: lower liver efflux/influx ratio than NVP-2

C[C@H](COCC(=O)O)NC1CCC(Nc2cc(-c3cccc(NCC4(C#N)CCOCC4)n3)c(Cl)cn2)CC1 (stereo partly drawn) [Compound 8, 2-((R)-2-(((1R,4R)-4-((5′-chloro-6-(((4-cyanotetrahydro-2H-pyran-4-yl)methyl)amino)-[2,4′-bipyridin]-2′-yl)amino)cyclohexyl)amino)propoxy)acetic acid]
IC50 (CDK9/CyclinT): 0.0025 to 0.005 µM | EC50 (HepG2 cells): > 1 µM | EC50 (Huh7 cells): > 1 µM | EC50 (SK-HEP-1 cells): > 1 µM

C[C@@H](COCC(=O)O)NC1CCC(Nc2cc(-c3cccc(NCC4(C#N)CCOCC4)n3)c(Cl)cn2)CC1 (stereo partly drawn) [Compound 9, 2-((S)-2-(((1R,4S)-4-((5′-chloro-6-(((4-cyanotetrahydro-2H-pyran-4-yl)methyl)amino)-[2,4′-bipyridin]-2′-yl)amino)cyclohexyl)amino)propoxy)acetic acid]
IC50 (CDK9/CyclinT): 0.005 to 0.01 µM | EC50 (HepG2 cells): > 1 µM | EC50 (Hep3B cells): > 1 µM | EC50 (Huh7 cells): > 1 µM | EC50 (SK-HEP-1 cells): > 1 µM

CC(C)OC(=O)COC[C@@H](C)N[C@H]1CC[C@H](Nc2cc(-c3cccc(NCC4(C#N)CCOCC4)n3)c(Cl)cn2)CC1 [Compound 15, isopropyl 2-((R)-2-(((1r,4R)-4-((5′-Chloro-6-(((4-Cyanotetrahydro-2H-pyran-4-yl)methyl)amino)-[2,4′-bipyridin]-2′-yl)amino)cyclohexyl)amino)propoxy)acetate]
IC50 (CDK9/CyclinT): 0.0025 to 0.005 µM | EC50 (HepG2 cells): < 0.1 µM | EC50 (Huh7 cells): < 0.1 µM | EC50 (SK-HEP-1 cells): < 0.1 µM

CC(C)OC(=O)COC[C@H](C)N[C@H]1CC[C@H](Nc2cc(-c3cccc(NCC4(C#N)CCOCC4)n3)c(Cl)cn2)CC1 [Compound 16, isopropyl 2-((S)-2-(((1r,4S)-4-((5′-chloro-6-(((4-cyanotetrahydro-2H-pyran-4-yl)methyl)amino)-[2,4′-bipyridin]-2′-yl)amino)cyclohexyl)amino)propoxy)acetate]
IC50 (CDK9/CyclinT): 0.005 to 0.01 µM | EC50 (HepG2 cells): 0.1 to 0.5 µM | EC50 (Huh7 cells): < 0.1 µM | EC50 (SK-HEP-1 cells): < 0.1 µM

C[C@H](COCC(=O)OC(C)(C)C)N[C@H]1CC[C@H](Nc2cc(-c3cccc(NCC4(C#N)CCOCC4)n3)c(Cl)cn2)CC1 [Compound 18, tert-butyl 2-((R)-2-(((1r,4R)-4-((5′-chloro-6-(((4-cyanotetrahydro-2H-pyran-4-yl)methyl)amino)-[2,4′-bipyridin]-2′-yl)amino)cyclohexyl)amino)propoxy)acetate]
IC50 (CDK9/CyclinT): > 0.01 µM | EC50 (HepG2 cells): < 0.1 µM | EC50 (Hep3B cells): < 0.1 µM | EC50 (Huh7 cells): < 0.1 µM | EC50 (SK-HEP-1 cells): < 0.1 µM | ratio of compound concentrations in liver versus blood [1]: higher liver/blood ratios than NVP-2 | ratio of compound concentrations in blood from jugular vein versus portal vein (liver efflux/influx ratio) [2]: lower liver efflux/influx ratio than NVP-2 | toxicity (mean weight changes relative to day 1) [3]: lower toxicity than NVP-2

C[C@@H](COCC(=O)OC(C)(C)C)N[C@H]1CC[C@H](Nc2cc(-c3cccc(NCC4(C#N)CCOCC4)n3)c(Cl)cn2)CC1 [Compound 19, tert-butyl 2-((S)-2-(((1r,4S)-4-((5′-chloro-6-(((4-cyanotetrahydro-2H-pyran-4-yl)methyl)amino)-[2,4′-bipyridin]-2′-yl)amino)cyclohexyl)amino)propoxy)acetate]
IC50 (CDK9/CyclinT): 0.0025 to 0.005 µM | EC50 (HepG2 cells): < 0.1 µM | EC50 (Huh7 cells): < 0.1 µM | EC50 (SK-HEP-1 cells): < 0.1 µM

C[C@H](COCc1nnn(C)n1)N[C@H]1CC[C@H](Nc2cc(-c3cccc(NCC4(C#N)CCOCC4)n3)c(Cl)cn2)CC1 [Compound 33, 4-(((5′-chloro-2′-(((1R,4r)-4-(((R)-1-((2-methyl-2H-tetrazol-5-yl)methoxy)propan-2-yl)amino)cyclohexyl)amino)-[2,4′-bipyridin]-6-yl)amino)methyl)tetrahydro-2H-pyran-4-carbonitrile]
IC50 (CDK9/CyclinT): 0.005 to 0.01 µM | EC50 (HepG2 cells): < 0.1 µM | EC50 (Hep3B cells): 0.1 to 0.5 µM | ratio of compound concentrations in liver versus blood [1]: higher liver/blood ratios than NVP-2

From patent US11591322B2, “Certain chemical compositions and methods of use thereof” (Algen Biotechnologies, Inc., priority 2020, dated 2023)
